Blank lines part the entries; values can stand above or below the molecule they belong to.
Assays:
[1] = Experimentally obtained drug solubilities in gels; assay type: physicochemical
From the text: Experimentally obtained drug solubilities are given in the table (all percentages are weight %).

[2] = Tested solubility of APIs in carbohydrate ester gels (Example 21); settings: in the gel formulations listed for each API in Table 8; maximal solubility may be higher than tested
Experimental: Compositions are given in weight percent (or weight ratio) and each compound is weighed into one vial. The mixture is placed in an ultrasonication bath at 70-80° C. for 1-2 hours and occasionally vortexed to generate homogenous solutions that is subsequently stored at 4° C. until further use. Afterwards, all active pharmaceutical ingredients (APIs) are incorporated into the gels proportionally by adding gel on top of freeze-dried APIs or combinations of freeze-dried APIs. The gel is subjected to magnetic stirring at 40-50° C. until the API or combination of APIs is completely dissolved. The gel-API mixture is transferred and stored in sealed vials at room temperature or at 4° C. Certain gel-API mixtures may be stored at −20° C.

[3] = In vitro release of RepSox and Galunisertib from LOIB based gels into PBS (Example 14); settings: for cumulative release: after 14 days, 8 mg/gram in 82.5 (% w/w) LOIB gel, 100 μL in 2 ml PBS
Experimental: Following, 100 μL of each gel were injected in duplicates into 2 ml of PBS.

[4] = Co-solubilization of R848 and RepSox in LOIB gel (Example 15); assay type: physicochemical; settings: with 2.4 mg R848
Experimental: The mixture was solubilized using a magnetic stirring for 2 hours at 40-50° C. under continuous visual inspection.

[5] = In vivo release of TGFb inhibitors from intratumoral gel depots (Example 32); settings: 8 mg/g, 50 μL intratumoral, CT26 tumors, 7 days
Experimental: Animal handling: For each formulation 50 μL of gel was injected intratumorally in female Balb/c mice with CT26 tumors (Initial tumor volume of approximately 200 mm^3). The mice were sacrificed at different time points and gel samples were collected. The gels were stored at 4° C. until analysis. For each gel, four mice were sacrificed at each timepoint.
Samples were heated to 50° C. and stirred at 600 rpm to promote dissolution. The samples were subsequently filtered through 0.45 μm pore, nylon syringe filters.
HPLC method: Samples were analyzed on a Shimadzu Nexera-i HPLC. […] The solvent system consisted of mobile phase A (5% MeCN, 0.1% TFA in water) and mobile phase B (0.1% TFA in MeCN). Chromatographic separation was achieved using an optimized gradient.

[6] = In vitro release of Gardiquimod and Resiquimod from SuBen gels with different co-solvents, HPLC (Example 28); assay type: physicochemical; settings: 49 days; for in vitro release of Gardiquimod: 1.2 mg/g, PBS 37° C
Experimental: SuBen:GTO:EtOH (60:25:15 (% w/w)) and SuBen:Lipiodol:EtOH (60:25:15 (% w/w)) were prepared by simple mixing and sonication (80° C., 90-120 min) as described in example 19. […] SuBen:GTO:EtOH:PLA (60:25:15:0.5 (% w/w)), SuBen:Ethyl-palmitate:EtOH (60:25:15 (% w/w)), and SuBen:Ethyl-oleate:EtOH (60:25:15 (% w/w)) were prepared by simple mixing and sonication (80° C., 90-120 min) as described in example 19. […] The vials are closed with lids and are incubated at 37° C. At each sampling point, take 1 mL of buffer and place it inside an Eppendorf tube. Then add 1 mL of fresh buffer to replace the taken sample. The samples are analyzed by HPLC. […] For both compounds, the flowrate was 1 mL/min and the column temperature was 40° C.

[7] = In vitro release of DOX base from SuBen and LOIB gels, fluorescence (Example 33); assay type: physicochemical; settings: 7 days at 37° C
Experimental: The vials were incubated at 37° C. After 7 days, 1 mL of PBS was taken and analysed by fluorescence spectroscopy.
Fluorescence spectroscopy: Fluorescence measurements were taken by a Tecan fluorescence microplate reader using 96-well, transparent Nunc plates. Sample volume was 200 μL.

[8] = Solubility and integrity of CLA-1 and CLA-8 in SuBen and LOIB gels (Example 22); assay type: physicochemical; settings: weight percentage
Experimental: HPLC assay: Samples were analyzed using a Shimadzu Nexera-i instrument. […] Chromatographic separation was achieved using a gradient of 40 to 100% phase B in 10 min. Ultraviolet detection at 280 nm was used to identify the CT contrast agents. Gel samples were prepared by dilution of 50 μL gel in 1 mL MeCN, which were then diluted 10-fold in MeCN.

[9] = gel composition e.g LOIB 82.5%, SuBen 60%

Solubility [1, 9]: >8 mg/g gel
Tested solubility in gels [2]: 8 mg/g gel
solubilized in LOIB-based gel formulations [3]: ≥ 8 mg/gram
cumulative release [3]: 27%
Compound: Cc1cccc(-c2nn3c(c2-c2ccnc4ccc(C(N)=O)cc24)CCC3)n1 [Galunisertib]

Solubility [1, 9]: >8 mg/g gel
dissolved together with R848 in LOIB:GTO:EtOH (82.5:7.5:10) gel [4]: 8 mg/g
cumulative release [3]: around 40%
in vivo release from gel depot (ranking) [5]: fastest release
Compound: Cc1cccc(-c2[nH]ncc2-c2ccc3ncccc3n2)n1 [RepSox]

Solubility ([1]; gel composition e.g SuBen 60%): >1 mg/g gel
Compound: CC1(N)CCN(c2cnc(-c3cccc(Cl)c3Cl)c(N)n2)CC1 [SHP099]

Tested solubility in gels [2]: 1 mg/g gel
Compound: COc1ccc(CNC(=O)Nc2ncc([N+](=O)[O-])s2)cc1 [AR-A014418]

reduction of Gardiquimod release on substitution of GTO with Lipiodol [6]: 6 fold
in vitro release of Gardiquimod ([6]; SuBen:GTO:EtOH (60:25:15) gel): 52.5%
in vitro release of Gardiquimod ([6]; SuBen:Lipiodol:EtOH (60:25:15) gel): 8.4%
Solubility [1, 9]: >1.5 mg/g gel
Compound: CCNCc1nc2c(N)nc3ccccc3c2n1CC(C)(C)O [Gardiquimod]

Solubility [1, 9]: >10 mg/g gel
Compound: CCOCc1nc2c(N)nc3ccccc3c2n1CC(C)(C)O [Resiquimod (R848), Resiquimod]

Solubility ([1]; gel composition e.g SuBen 60%): >4.8 mg/g gel
Compound: CC(C)Cn1cnc2c(N)nc3ccccc3c21 [Imiquimod]

Solubility ([1]; gel composition e.g SuBen 60%): >8 mg/g gel
Solubility ([1]; gel composition e.g SuBen:LOIB 35%/35%): >8 mg/g gel
Compound: Fc1ccc(Cl)cc1-c1nc(Nc2ccncc2)c2nccnc2n1 [SD-208]

release from gels into PBS [7]: released from the gels
Compound: COc1cccc2c1C(=O)c1c(O)c3c(c(O)c1C2=O)C[C@@](O)(C(=O)CO)C[C@@H]3O[C@H]1C[C@H](N)[C@H](O)[C@H](C)O1 [DOX base, doxorubicin]

CLA-8 completely solubilized in LOIB gels [8]: up to 10%
CLA-8 completely solubilized in SuBen gels [8]: up to 20%
Compound: O=C(OCC1OC(OC(=O)c2ccc(I)cc2)C(OC(=O)c2ccc(I)cc2)[C@@H](OC(=O)c2ccc(I)cc2)[C@@H]1O[C@@H]1OC(COC(=O)c2ccc(I)cc2)[C@H](OC(=O)c2ccc(I)cc2)[C@H](OC(=O)c2ccc(I)cc2)C1OC(=O)c1ccc(I)cc1)c1ccc(I)cc1 (stereo partly drawn) [CLA-8, α,β Lactose octa para-iodobenzoate]

From US20220339285A1, “DISSACHARIDE FORMULATIONS FOR CONTROLLED DRUG RELEASE” (TECHNICAL UNIVERSITY OF DENMARK, priority 2019, published 2022)
